Columns and labels:
Coccomyxa actinabiotis [1] = assay type: cell-based; conditions: after one day; 250 mg fresh mass of microalgae from BBM culture
Procedure: Another experiment was carried out by placing 250 mg of fresh mass of microalgae originating from cultures in BBM medium in the presence of […] of demineralized water which has a composition similar to that of the water from the spent fuel storage pools, namely pH 5.5, conductivity 1.2 μS/cm, containing 280 Bq/l of ^60Co, 530 Bq/l of ^58Co, 66 Bq/l of ^110mAg, 1460 Bq/l of ^124Sb, 1180 Bq/l of ^51Cr, 120 Bq/l of ^65Zn, […] and also tritium (260 000 Bq/l) and ^14C (10 000 Bq/l).

Coccomyxa actinabiotis [2] = experiment: Extraction of bound metals from the microalgae with water or HCl; assay type: cell-based
Procedure: Experiments in which the metals bound by the algae are solubilized were carried out by incubating these algae (70 mg of fresh matter) in 5 ml of demineralized water, or of demineralized water supplemented with HCl at various concentrations. In neutral medium, the metals are not extracted.
The cations most retained are ^60Co, ^108mAg and ^110mAg. They remain bound to the cell for low concentrations of HCl (pH 4.5 to 2.5). They begin to be released exponentially below a threshold pH of 2.5, Co being the most solidly bound since it is at most 35% extracted after 6 days of exposure at pH 0.5, whereas Ag is 90% extracted under the same conditions. At pH 1.5, 10% of Ag and 2% of Co are extracted after 6 days of exposure.

Coccomyxa actinabiotis [3] = experiment: Extraction of bound metals from the microalgae with 0.1 M EDTA pH 4.5; assay type: cell-based; conditions: 0.1 M EDTA pH 4.5, 2 days of exposure
Procedure: Other experiments were carried out in the presence of a 0.1 M solution of EDTA with a pH of 4.5. Under these conditions, 35% of the ^51Cr contained in the algae, but only 1% of the ^60Co and less than 0.5% of ^108mAg and ^116mAg, are extracted after 2 days of exposure.

Coccomyxa actinabiotis [4] = experiment: Transported decontamination of storage pool water, 24 h contact; assay type: cell-based; conditions: 50 ml water, 9×10^8 cells (140 mg fresh mass)
Procedure: Water originating from a spent nuclear element storage pool was brought into contact with Coccomyxae actinabiotis(50 ml of water in contact with 9×10^8 cells, i.e. 140 mg of algae by fresh mass, originating from culture and rinsed beforehand three times with Milli-Q water).
Table V below indicates the initial composition of the water, according to the total γ-activity measured and the γ-activity measured per radionuclide, and the percentage of γ-emitting radionuclides bound by the algae at 24 h.

Coccomyxa actinabiotis [5] = experiment: Maximum metal concentrations tolerated (one week exposure to Ag or Co); assay type: cell-based
Procedure: The limiting doses supported by Coccomyxa actinabiotis were investigated by exposure of the algae to silver or to cobalt for one week (20 mg of microalgae (fresh mass) in 100 ml of deionized water containing Ag or Co ions at various concentrations).

Coccomyxa actinabiotis [6] = experiment: Growth in the presence of cobalt; assay type: cell-based
Description: However, the Coccomyxa actinabiotis microalga does grow in the presence of 10^−4 mol/l of cobalt.

Deinococcus radiodurans = conditions: John et al. 2000; cited from earlier work
Coccomyxa actinabiotis [7] = experiment: Exposure to heavy water: respiration and photosynthesis of the algae; assay type: cell-based; conditions: 24 h and 48 h in 50%, 80% and 100% D2O in the dark; 24 h light in 50% D2O
Coccomyxa actinabiotis [8] = experiment: Kinetics of binding and incorporation of silver by algae with or without mucilage; assay type: cell-based
Procedure: Two series of experiments were carried out: one with algae having a coating of mucilage, the thickness of which, evaluated by optical microscopy, is about 1 μm or more (“algae with mucilage”), the other with algae cultured in BBM medium and having little or no mucilage (“algae without mucilage”).
20 mg of algae (compacted fresh mass) and 90 ml of solution of Ag^+ at various concentrations are introduced into Erlenmeyer flasks. The 20 mg of algae are prepared as follows: sample taken from a round-bottomed culture flask, centrifugation for 20 minutes at 3000 rpm, washing twice in demineralized water (suspension, centrifugation). The culture medium is thus removed and there is no risk of it complexing the silver.
The algae without mucilage are brought into contact with solutions containing 0.11 mg/L and 5.5 mg/L of Ag^+.
The algae with mucilage are brought into contact with solutions containing 22 μg/L, 1.1 mg/L and 55 mg/L of Ag^+.
The Erlenmeyer flasks are placed on illuminated shakers and samples of 5 ml are taken for various exposure times in order to monitor the binding kinetics for each of the initial concentrations of silver. The samples are centrifuged for 10 minutes at 4500 rpm in order to separate the algae which have concentrated the metal. The metal content is then analyzed in the pellet (algae) and in the supernatant.

organisms = conditions: Ratte 1999; cited from earlier work

[51Cr] [^51Cr]
percentage of isotope fixed (Coccomyxa actinabiotis [1]): 48% | metal extracted from algae (Coccomyxa actinabiotis [2]; pH 0.5, 6 days of exposure): ≤ 25% | metal contained in the algae extracted (Coccomyxa actinabiotis [3]): 35%

[Mn] [^54Mn]
percentage of isotope fixed (Coccomyxa actinabiotis [1]): 90% | % binding by the algae (Coccomyxa actinabiotis [4]): 100%

[58Co] [^58Co]
percentage of isotope fixed (Coccomyxa actinabiotis [1]): 94%

[60Co] [^60Co]
percentage of isotope fixed (Coccomyxa actinabiotis [1]): 94% | metal contained in the algae extracted (Coccomyxa actinabiotis [3]): 1% | % binding by the algae (Coccomyxa actinabiotis [4]): 72%

[65Zn] [^65Zn]
percentage of isotope fixed (Coccomyxa actinabiotis [1]): 100%

[110Ag] [^110mAg]
percentage of isotope fixed (Coccomyxa actinabiotis [1]): 100% | % binding by the algae (Coccomyxa actinabiotis [4]): 100%

[124Sb] [^124Sb]
percentage of isotope fixed (Coccomyxa actinabiotis [1]): 30%

[137Cs] [^137Cs]
% binding by the algae (Coccomyxa actinabiotis [4]): 100%

[U] [^238U]
% binding by the algae (Coccomyxa actinabiotis [4]): 95%

[Co+2] [cobalt]
metal extracted from algae (Coccomyxa actinabiotis [2]; pH 0.5, 6 days of exposure): at most 35% | metal extracted from algae (Coccomyxa actinabiotis [2]; pH 1.5, 6 days of exposure): 2% | cobalt intolerance threshold (Co2+ concentration) (Coccomyxa actinabiotis [5]; with mucilage): > 800 mg/L | cobalt intolerance threshold (Co2+ concentration) (Coccomyxa actinabiotis [5]; without mucilage): > 50 mg/L | cobalt concentration in the presence of which the microalga grows (Coccomyxa actinabiotis [6]): 10^−4 mol/l | cobalt concentration inhibiting growth (Deinococcus radiodurans): 5 ppm

[2H]O[2H] [heavy water]
effect on respiration and photosynthesis of the algae (Coccomyxa actinabiotis [7]): no effect

[Ag] [silver]
metal extracted from algae (Coccomyxa actinabiotis [2]; pH 0.5, 6 days of exposure): 90% | metal extracted from algae (Coccomyxa actinabiotis [2]; pH 1.5, 6 days of exposure): 10% | silver bound at the plateau (Coccomyxa actinabiotis [8]; algae with mucilage, initial concentration 55 mg/l): 20% | silver bound at the plateau (Coccomyxa actinabiotis [8]; algae without mucilage, initial concentration 5.5 mg/l): 75% | extracellular silver concentration withstood (Coccomyxa actinabiotis [5]; Coccomyxae actinabiotis with mucilage): at least 50 mg/L | silver concentration at which algae do not survive (Coccomyxa actinabiotis [5]; Coccomyxae actinabiotis without mucilage): greater than 250 μg/L | concentration at which silver is generally toxic (organisms): 10^−7-10^−5 mol/l
